# Assay results reported in patent US20240000828A1 (priority 2020, published 2024).
# Several values for one entry are separate records, joined by “and”; a condition that tells them apart may be missing. Equal values may be shown once. Read-outs that look alike come from different tables or passages of the source.
# Assays:
# Vero E6 cells = settings: for Viability of Uninfected Vero E6 Cells (A540): 4 days, individual replicates; for Viability of Uninfected Vero E6 Cells (% Vehicle): 4-day treatment
# [1] = test system: SARS-CoV-2 (MEX-BC2/2020); assay: Live SARS-CoV-2 CPE-based antiviral assay in Vero E6 cells (neutral red uptake); format: cell-based
# glycoprotein B-2 (gpB-2) = glycoprotein B-2 (gpB-2) (Human herpesvirus 2, UniProt P08666); settings: cited from earlier work
# gp120 = settings: by binding gp120; cited from earlier work
# Ebola virus = settings: cited from earlier work
# [2] = test system: influenza A/California/07/2009 (H1N1); assay: microbe, parasite or virus in culture; format: cell-based, Influenza A Virus
# glycoprotein B-2 (gpB-2), sequence (P08666 23-904 limits assumed): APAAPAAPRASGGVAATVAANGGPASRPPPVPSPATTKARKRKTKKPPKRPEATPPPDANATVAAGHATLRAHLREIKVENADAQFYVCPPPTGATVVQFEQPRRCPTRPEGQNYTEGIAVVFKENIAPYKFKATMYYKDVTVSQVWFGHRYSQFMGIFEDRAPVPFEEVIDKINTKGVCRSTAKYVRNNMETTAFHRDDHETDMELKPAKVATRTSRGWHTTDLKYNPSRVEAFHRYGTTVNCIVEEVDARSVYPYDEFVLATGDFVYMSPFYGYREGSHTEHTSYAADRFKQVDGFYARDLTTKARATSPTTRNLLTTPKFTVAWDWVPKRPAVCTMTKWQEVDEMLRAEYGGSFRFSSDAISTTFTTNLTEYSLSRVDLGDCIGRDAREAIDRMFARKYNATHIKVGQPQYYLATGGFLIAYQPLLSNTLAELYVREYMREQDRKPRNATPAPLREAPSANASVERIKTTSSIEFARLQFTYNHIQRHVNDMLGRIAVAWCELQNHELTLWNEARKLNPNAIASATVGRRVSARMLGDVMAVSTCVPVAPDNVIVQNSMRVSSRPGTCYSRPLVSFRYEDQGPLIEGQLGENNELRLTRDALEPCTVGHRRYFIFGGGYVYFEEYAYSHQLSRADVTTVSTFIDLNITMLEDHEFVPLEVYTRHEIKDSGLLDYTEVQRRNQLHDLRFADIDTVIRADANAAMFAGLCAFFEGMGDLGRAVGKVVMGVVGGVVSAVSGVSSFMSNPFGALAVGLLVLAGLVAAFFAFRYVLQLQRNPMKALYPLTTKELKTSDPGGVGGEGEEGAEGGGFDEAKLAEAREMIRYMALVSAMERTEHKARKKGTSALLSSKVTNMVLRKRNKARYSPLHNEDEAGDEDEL
molecule,measurement,setting,value
N#C[C@@]1(c2ccc3c(N)ncnn23)O[C@H](CO)[C@@H](O)[C@H]1O [GS-441524],Viability of Uninfected Vero E6 Cells (A540),Vero E6 cells; 1 μM,1.404 and 1.753
same,loss of viability in uninfected cells,Vero E6 cells; 10 μM,no significant loss of viability
same,Viability of Uninfected Vero E6 Cells (A540),Vero E6 cells; 10 μM,1.616
same,Inhibition of SARS-CoV-2 (MEX-BC2/2020) Virus-Induced CPE (%),"[1]; 0.03 μM, single data point",−7.0%
same,Inhibition of SARS-CoV-2 (MEX-BC2/2020) Virus-Induced CPE (%),"[1]; 0.25 μM, single data point",51.9%
same,Inhibition of SARS-CoV-2 (MEX-BC2/2020) Virus-Induced CPE (%),"[1]; 0.74 μM, single data point",89.7%
same,prevention of the virus-induced CPE,[1]; 1 μM,completely prevented
same,Inhibition of SARS-CoV-2 (MEX-BC2/2020) Virus-Induced CPE (%),"[1]; 1 μM, positive control wells",112.3 ± 24.4%
same,Inhibition of SARS-CoV-2 (MEX-BC2/2020) Virus-Induced CPE (%),"[1]; 2.2 μM, single data point",89.9%
same,Inhibition of SARS-CoV-2 (MEX-BC2/2020) Virus-Induced CPE (%),"[1]; 6.7 μM, single data point",96.3%
same,Inhibition of SARS-CoV-2 (MEX-BC2/2020) Virus-Induced CPE (%),"[1]; 10 μM, positive control wells",117.2 ± 5.4%
same,prevention of the virus-induced CPE of the infected cells,"[1]; control inhibitor, concentration not given",prevented completely
same,IC50,"[1]; control inhibitor, single data points, Vero E6, 96 hours",170 nM
CC[C@H]1CN2CCc3cc(OC)c(OC)cc3[C@@H]2C[C@@H]1C[C@H]1NCCc2cc(OC)c(OC)cc21 [Emetine],inhibition of cell viability,A549 cells; 10 μM,greater than 85%
same,Viability in A549 cells (% Vehicle),"A549 cells; 10 μM, cytotoxic control",14.0 ± 4.6%
same,Viability in A549 Cells (A490),"A549 cells; 10 μM, cytotoxic control, 48 hours, individual replicates",0.236 and 0.179
"CCN(CC)CCCC(C)Nc1ccnc2cc(Cl)ccc12 (centres unmarked) [CQ, chloroquine diphosphate]",Viability of Uninfected Vero E6 Cells (% Vehicle),Vero E6 cells; 5 μM,75.9 ± 2.6%
same,Viability of Uninfected Vero E6 Cells (A540),Vero E6 cells; 5 μM,1.206 and 1.262
same,"Absorbance (540 nm), SARS-CoV-2-induced CPE",[1],0.985 and 1.011
same,Inhibition of SARS-CoV-2 (MEX-BC2/2020) Virus-Induced CPE (%),"[1]; 5 μM, positive control wells",61.8 ± 2.5%
polyphenylene carboxymethylene [PPCM],"binding to gpB-2, which prevents herpes attachment and fusion",glycoprotein B-2 (gpB-2),binds
same,cell-to-cell transmission and primary infection by multiple clades of HIV-1,gp120,prevents
same,inhibition of Ebola virus,Ebola virus,inhibited
"O=C1c2c(O)c(=O)ccn2N([C@@H]2c3ccccc3SCc3c2ccc(F)c3F)[C@@H]2COCCN12 [Baloxavir, baloxavir]",IAV Infectivity in A549 Cells (% Vehicle),"[2]; 0.01 nM, single data point",95.3%
same,IVA Infectivity in A549 Cells (Absorbance 490 nm),"[2]; 0.01 nM, single data point",1.064
same,IAV Infectivity in A549 Cells (% Vehicle),"[2]; 0.06 nM, single data point",86.9%
same,IVA Infectivity in A549 Cells (Absorbance 490 nm),"[2]; 0.06 nM, single data point",1.000
same,IAV Infectivity in A549 Cells (% Vehicle),"[2]; 0.32 nM, single data point",64.4%
same,IVA Infectivity in A549 Cells (Absorbance 490 nm),"[2]; 0.32 nM, single data point",0.828
same,IAV Infectivity in A549 Cells (% Vehicle),"[2]; 1.6 nM, single data point",17.7%
same,IVA Infectivity in A549 Cells (Absorbance 490 nm),"[2]; 1.6 nM, single data point",0.471
same,IAV Infectivity in A549 Cells (% Vehicle),"[2]; 8.0 nM, single data point",6.1%
same,IVA Infectivity in A549 Cells (Absorbance 490 nm),"[2]; 8.0 nM, single data point",0.383
same,IAV Infectivity in A549 Cells (% Vehicle),"[2]; 40 nM, single data point",5.6%
same,IVA Infectivity in A549 Cells (Absorbance 490 nm),"[2]; 40 nM, single data point",0.379
same,IAV Infectivity in A549 Cells (% Vehicle),"[2]; 0.2 μM, positive control",6.0%
same,IVA Infectivity in A549 Cells (Absorbance 490 nm),"[2]; 0.2 μM, positive control, 48 hours, individual replicates, listed as BLX",0.383 and 0.391 and 0.374
same,IAV Infectivity in A549 Cells (% Vehicle),"[2]; 200 nM, single data point",6.0%
same,IVA Infectivity in A549 Cells (Absorbance 490 nm),"[2]; 200 nM, single data point",0.382
same,IAV Infectivity in A549 Cells (% Vehicle),"[2]; 1,000 nM, single data point",10.8%
same,IVA Infectivity in A549 Cells (Absorbance 490 nm),"[2]; 1,000 nM, single data point",0.419
same,IC50,"[2]; Influenza A virus, H1N1, control antiviral, single data points, A549 cells, 48 hours, read-out: IC50, IAV Antiviral Assay",0.49 nM
same,block of infection,[2]; at some concentrations tested,over 99%
same,Viability in A549 cells (% Vehicle),A549 cells; 0.2 μM,102.0 ± 2.4%
"C[S+](C)[O-] [DMSO, Dimethyl sulfoxide]",Viability of Uninfected Vero E6 Cells (% Vehicle),"Vero E6 cells; 10%, cytotoxic agent control",−0.2 ± 0.0%
same,Viability of Uninfected Vero E6 Cells (A540),"Vero E6 cells; 10%, cytotoxic agent control",0.074 and 0.073
same,block of cell viability,Vero E6 cells; tested at 10%,more than 99%
